Results as given in patent US20220257552A1, “METHODS OF PRESCREENING AND TREATING BREAST CANCERS WITH SELECTIVE ANDROGEN RECEPTOR MODULATORS” (priority 2021, published 2022).

Tests used:
[1] = system: MDA-MB-231-AR triple negative breast cancer cells; test: MDA-MB-231-AR xenograft in nude mice; type: in vivo; conditions: for body weight / tumor weights: all doses
Experimental: MDA-MB-231-AR triple negative breast cancer cells (2 million cells/mouse; MDA-MB-231 cells stably transfected with AR using lentivirus) were mixed with matrigel (1:1) and injected subcutaneously into the flanks of intact female nude mice (n=5/group). When the tumors reached 150-200 mm^3, the animals were separated into two groups, one receiving vehicle and the other receiving 30 mg/kg Formula VIII orally. Tumor volume was measured thrice weekly and % tumor growth inhibition (TGI) was calculated. At the end of 35 days of treatment, the animals were sacrificed, tumors excised, weighed, and collected for various analyses. Blood was collected and serum separated for drug concentration measurement.

MDA-MB-231-AR cells = test: Morphology of MDA-MB-231-AR cells; type: cell-based; conditions: 3 days
Experimental: MDA-MB-231 cells were stably transfected with AR using lentivirus. […] Live cells were visualized using a light-microscope and photographed. The cells were imaged at the same magnification and under the same microscopic conditions.
MDA-MB-231 cells were stably transfected with AR using lentivirus and were treated with vehicle or AR agonists at the indicated concentrations. At the end of 3 days of incubation, the cells were imaged under a microscope (40×).

PR = biological target: T1, PR (Rattus norvegicus, UniProt Q63449); test: PR transactivation in HEK-293 cells; type: cell-based
T1 construct: expressed in transfected cells
T1 sequence (Q63449 1-923): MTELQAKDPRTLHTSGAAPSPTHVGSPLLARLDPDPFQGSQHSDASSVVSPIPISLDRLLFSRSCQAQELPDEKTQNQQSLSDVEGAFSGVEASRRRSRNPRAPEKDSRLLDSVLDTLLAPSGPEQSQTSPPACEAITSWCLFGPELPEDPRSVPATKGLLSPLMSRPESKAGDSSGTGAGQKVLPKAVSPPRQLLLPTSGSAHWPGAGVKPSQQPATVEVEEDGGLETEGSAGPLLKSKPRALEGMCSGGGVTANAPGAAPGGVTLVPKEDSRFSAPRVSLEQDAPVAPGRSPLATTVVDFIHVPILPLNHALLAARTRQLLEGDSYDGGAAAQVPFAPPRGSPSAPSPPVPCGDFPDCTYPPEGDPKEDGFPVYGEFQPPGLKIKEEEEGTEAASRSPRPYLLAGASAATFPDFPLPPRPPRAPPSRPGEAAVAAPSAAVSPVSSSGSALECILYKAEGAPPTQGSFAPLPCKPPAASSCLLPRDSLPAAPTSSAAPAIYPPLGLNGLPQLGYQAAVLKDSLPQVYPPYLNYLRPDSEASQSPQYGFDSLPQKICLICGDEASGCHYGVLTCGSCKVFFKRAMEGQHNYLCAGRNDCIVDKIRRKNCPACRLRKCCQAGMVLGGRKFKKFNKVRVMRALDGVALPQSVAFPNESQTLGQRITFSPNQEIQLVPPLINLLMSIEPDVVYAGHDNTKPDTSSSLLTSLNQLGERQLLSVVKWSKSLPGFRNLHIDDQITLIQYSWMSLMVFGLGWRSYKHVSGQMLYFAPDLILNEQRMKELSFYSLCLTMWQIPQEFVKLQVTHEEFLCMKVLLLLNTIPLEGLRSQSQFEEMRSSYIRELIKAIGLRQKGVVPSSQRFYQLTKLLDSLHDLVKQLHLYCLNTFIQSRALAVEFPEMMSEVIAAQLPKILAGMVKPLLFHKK
Experimental: Rat GR, MR, PR, ER-α and ER-β were individually cloned into a pCR3.1 vector backbone. Sequencing was performed to verify the absence of any mutations. HEK-293 cells were plated at 90,000 cells per well of a 24 well plate in Dulbecco's Minimal Essential Media supplemented with 5% charcoal-stripped FBS. […] Luciferase assays were performed 48 h after transfection. Transcriptional activation values are represented as firefly luciferase normalized to renilla luciferase.

[2] = system: MDA-MB-231 breast cancer cells stably transfected with AR; test: Proliferation of MDA-MB-231 cells stably transfected with AR (Coulter counter); type: cell-based; conditions: 6 days, cell count
Experimental: MDA-MB-231 cells stably transfected with AR using lentivirus were treated with the indicated ligands for 6 days and the number of cells counted using Coulter counter.

AR = biological target: T2, AR (Homo sapiens, UniProt P10275); test: AR transactivation (GRE-LUC) in HEK-293 or MDA-MB-231 cells; type: cell-based; design: expressed in transfected cells; conditions: HEK-293 and MDA-MB-231 cells
T2 sequence (P10275 1-920): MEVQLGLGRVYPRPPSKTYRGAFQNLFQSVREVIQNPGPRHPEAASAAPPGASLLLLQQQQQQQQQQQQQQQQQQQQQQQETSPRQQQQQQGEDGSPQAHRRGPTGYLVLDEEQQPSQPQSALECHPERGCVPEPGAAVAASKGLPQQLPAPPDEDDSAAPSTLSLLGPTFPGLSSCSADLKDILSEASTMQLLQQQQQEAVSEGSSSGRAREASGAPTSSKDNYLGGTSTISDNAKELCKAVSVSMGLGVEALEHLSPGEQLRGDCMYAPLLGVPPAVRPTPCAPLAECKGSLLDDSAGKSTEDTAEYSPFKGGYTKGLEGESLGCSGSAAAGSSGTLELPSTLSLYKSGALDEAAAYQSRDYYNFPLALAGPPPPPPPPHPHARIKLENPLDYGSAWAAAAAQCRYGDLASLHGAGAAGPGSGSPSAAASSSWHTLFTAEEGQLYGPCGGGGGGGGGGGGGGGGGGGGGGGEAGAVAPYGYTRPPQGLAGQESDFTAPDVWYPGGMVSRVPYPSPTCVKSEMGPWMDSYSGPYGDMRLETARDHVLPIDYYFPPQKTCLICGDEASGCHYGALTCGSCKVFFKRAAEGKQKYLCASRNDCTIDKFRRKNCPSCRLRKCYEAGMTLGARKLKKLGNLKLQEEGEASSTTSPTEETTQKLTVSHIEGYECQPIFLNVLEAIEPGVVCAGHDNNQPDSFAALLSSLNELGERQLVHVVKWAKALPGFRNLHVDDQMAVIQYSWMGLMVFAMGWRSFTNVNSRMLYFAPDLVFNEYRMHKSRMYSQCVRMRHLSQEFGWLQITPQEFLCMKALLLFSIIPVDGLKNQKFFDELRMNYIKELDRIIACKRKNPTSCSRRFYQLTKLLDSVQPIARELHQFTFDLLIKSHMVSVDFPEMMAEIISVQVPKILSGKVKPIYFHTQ
Experimental: Though AR transactivation assay was performed in HEK-293 cells, the ability of ligands to function as agonists or antagonists depends on cellular microenvironment. […] The cells were treated 24 h after transfection and luciferase assay performed 48 h after transfection.

SMILES | body weight [1] | tumor weights [1] | cell morphology (MDA-MB-231-AR cells) | IC50 (PR) [µM] | proliferation [2] | AR transactivation (AR) | uterus weight ([1]; 30 mg/kg orally) | toxicity / body weight ([1]; 30 mg/kg orally, 35 days) | PR antagonist potency relative to Formula IX (more potent) (PR) [times] | PR antagonist potency relative to R-enantiomer of Formula IX (more potent) (PR) [times] | PR antagonist potency relative to RU486 (weaker) (PR) | transactivation of PR, increase (PR; 1 μM) [fold] | transactivation of PR, increase (PR; 10 μM) [fold] | weaker than the endogenous agonist for PR (PR; vs progesterone)
C[C@](O)(COc1ccc(C#N)cc1)C(=O)Nc1ccc(C#N)c(C(F)(F)F)c1 [Formula IX, (S)—N-(4-Cyano-3-(trifluoromethyl)phenyl)-3-(4-cyanophenoxy)-2-hydroxy-2-methylpropanamide] | increase of body weight | reduced | altered the morphology into a more anchored phenotype | 0.163 | inhibited the proliferation | agonists of AR |  |  |  |  |  |  |  | 
C[C@](O)(COc1ccc(C#N)cc1)C(=O)Nc1ccc(C#N)c(Cl)c1 [Formula VIII, (S)—N-(3-chloro-4-cyanophenyl)-3-(4-cyanophenoxy)-2-hydroxy-2-methylpropanamide] | increase of body weight | reduced | altered the morphology into a more anchored phenotype | 0.0171 | inhibited the proliferation | agonists of AR | increased | without any associated toxicity or changes in body weight | 10 | 100 | about 1,000 fold | 3 | 8 | greater than 10,000 fold
